Tests used:
[1] = tested on: phosphorylation of Chk1 (Ser 345); assay: Western blot analysis of Chk1 inhibition; type: cell-based; details: 1 μM VE-821; after gemcitabine (100 nM), radiation (6 Gy) or both; FIG. 1 panel A
Experimental: Cells were treated with 100 nM gemcitabine for 1 h, 1 μM VE-821 was added 1 h later and cells were irradiated (6 Gy) 1 h after that. Drugs were left for the duration of the experiment and cells were lysed at 2 h post-irradiation and subjected to Western blot analysis. MiaPaCa-2 and PSN-1 cells were exposed to gemcitabine and/or 1 μM VE-821 drug 1 h prior to irradiation with a single dose of 6 Gy. Cells were lysed in RIPA buffer 2 h post-irradiation and subjected to SDS-PAGE electrophoresis and immunoblotting. Chemoluminescence (SuperSignal, Millipore) and film exposure was used to detect antibody binding. Exposed film was digitized and figures were assembled using Microsoft PowerPoint.

[2] = tested on: PSN-1, Panc-1, MiaPaCa-2 pancreatic cancer cell lines; assay: Cell viability assay (Alamar Blue) with irradiation, tumour cells; type: cell-based; details: VE-821 for 96 h with or without 4 Gy; viability after 8 days; FIG. 1 panel B
Experimental: PSN-1, Panc-1, MiaPaCa-2 pancreatic cancer cell lines and MRCS fibroblasts were treated with increasing concentrations of VE-821 for 96 h combined with or without 4 Gy radiation at 1 h after VE-821 addition. Cell viability was measured after 8 days and shown as normalized to DMSO-treated cells. MiaPaCa-2, PSN-1, Panc1 and MRCS cells (5×104) were plated in 96-well plates and after 4 h treated with increasing concentrations of VE-821 at 1 h before irradiation with a single dose of 6 Gy. Medium was replaced 96 h post-irradiation at which point viability was measured using the using the Alamar Blue assay (Resazurin substrate, SIGMA). Cells were allowed to proliferate and cell viability was again analyzed at day 8 for the different treatment conditions. Cell viability and surviving fraction were normalized to the untreated (control) group.

[3] = tested on: primary adenocarcinoma NSCLC xenograft; assay: Primary adenocarcinoma NSCLC xenograft model; type: in vivo, SCID mice; details: VE-822 60 mg/kg po qd4 with cisplatin 1 or 3 mg/kg ip q7d; FIG. 20
Experimental: Tumor tissue was excised from a patient with a poorly differentiated adenocarcinoma. This tumor tissue was implanted subcutaneously in the flank of a SCID mouse and passaged twice before compound testing. For compound testing passage-two tumor tissue was implanted subcutaneously in the flank of SCID mice and tumors grown to a volume of about 200 mm^3 Cisplatin was dosed alone at either 1 or 3 mg/kg ip, once per week (ip, q7d, on day 2 of each week) for two weeks. VE-822 was dosed as a solution alone at 60 mg/kg po on 4 consecutive days per weekly cycle (qd4, dosed on days 1, 2, 3 and 4 each week). Two combination groups received cisplatin at 1 or 3 mg/kg plus VE-822 at 60 mg/kg po on the same schedule as the single agent group. A control group received vehicle alone (10% Vitamin E TPGS in water, po qd4). All drug treatment was stopped on Day 28. Vehicle, cisplatin (1 mg/kg) and VE-822 (60 mg/kg) groups were sacrificed and the remainder monitored for a further 40 days to assess tumor re-growth.
Data are mean±sem, n=9-10. […]

[4] = tested on: PSN1 pancreatic cancer xenografts; assay: PSN1 pancreatic cancer xenograft model with gemcitabine; type: in vivo, female nude MF1 mice; details: VE-822 PO q2d 10, 30 or 60 mg/kg with gemcitabine 15 mg/kg IP q3d; FIG. 21
Experimental: PSN1 cells (1×10^6 cells per mouse) were implanted as a mixture in Matrigel (100 μl per mouse) into the flank of female nude MF1 mice and grown to a volume of about 200 mm^3 prior to compound administration. Gemcitabine was dosed alone at 15 mg/kg ip, once every three days (ip, q3d) in 0.5% methylcellulose in water for a maximum of 10 cycles. VE-822 was dosed, as a suspension in 0.5% methylcellulose in water, alone at either 10, 30 or 60 mg/kg po every other day for 28 days (po q2d). Three combination groups received gemcitabine at 15 mg/kg plus VE-822 either at 10, 30 or at 60 mg/kg po on the same schedule as the single agent groups. A control group received vehicle alone (0.5% methylcellulose ip q3d). All drug treatment was stopped on Day 30. Vehicle and VE-822 groups were sacrificed on day 13 due to excessive tumor volumes.
Data shown are mean tumor volume±SEM (n=8 per group). Red filled circles are VE-822 treatment; Black filled squares are vehicle treatment; Green filled circles are gemcitabine treatment; Blue filled circles are gemcitabine and VE-822 (10 mg/kg) treatment; Red filled circles are gemcitabine and VE-822 (30 mg/kg) treatment; Pink filled circles are gemcitabine and VE-822 (60 mg/kg) treatment;

[5] = tested on: pancreatic cancer cell lines; assay: Pancreatic cancer cell screen, CellTiter-Glo cell viability assay; type: cell-based
Experimental: All cell lines were seeded in 30 μl of tissue culture medium containing 10% FBS into 384-well opaque-bottom plates. The seeding density was based on the logarithmic growth rate of each cell line. After 24 hours, compound stock solutions were added to each well to afford a matrix consisting of 9 concentrations for VE-822 and 7 concentrations for Gemcitabine and Cisplatin. Each well contains either, agent alone or a combination of both agents. The final concentration ranges were as follows: VE-822, 0.3 nM-2 μM; Gemcitabine, 0.3 nM-0.22 μM; Cisplatin, 30 nM-20 μM. The cells were then incubated for 96 hours at 37° C. in an atmosphere of 5% CO2 and 95% humidity.
This assay measures the number of viable cells in a culture based on the quantitation of ATP, which is present in metabolically active cells.
CellTiter-Glo Reagent (Promega, Madison, Wis., USA) was prepared according to the manufacturer's instructions and added 96 hours after compound addition (25 μl/well) to measure cell viability. Luminescence signal was measured with the PHERAStarFS (BMG Labtech, Cary, N.C., USA) automated plate reader. […]
Raw luminescence CellTiter-Glo (CTG) values were normalized to the mean CTG value for the negative control DMSO-treated samples on each assay plate. IC50 values for chemotoxic alone were calculated using DMSO-normalized cell survival values for the samples treated with chemotoxic compound alone. […]

CS(=O)(=O)c1ccc(-c2cnc(N)c(C(=O)Nc3ccccc3)n2)cc1 [VE-821]
phosphorylation of Chk1 (Ser 345) [1]: inhibits phosphorylation of Chk1 (Ser 345)
radiosensitisation of pancreatic tumour cells (cell viability) [2]: radiosensitises pancreatic tumour cells

CNCc1ccc(-c2cc(-c3nc(-c4ccc(S(=O)(=O)C(C)C)cc4)cnc3N)on2)cc1 [VE-822]
antitumor effects of cisplatin (tumor volume) [3]: enhances the antitumor effects of cisplatin
antitumor effects of gemcitabine (tumor volume) [4]: enhances the antitumor effects of gemcitabine
synergy with cisplatin and gemcitabine in pancreatic cancer cell lines ([5]; maximum shift in IC50 of each chemotoxic, 96 hours, FIG. 18): Synergizes with Cisplatin and Gemcitabine
synergy (shift in IC50 of chemotoxic) in pancreatic cancer cell lines ([5]; with chemotoxics, FIG. 19): Greater than 3 fold

Source: patent publication US10813929B2, “Treating cancer with ATR inhibitors” (VERTEX PHARMACEUTICALS INCORPORATED, priority 2011, dated 2020)
